Data taken from PMC10455244, “Alpha-Mangostin: A Potent Inhibitor of TRPV3 and Pro-Inflammatory Cytokine Secretion in Keratinocytes” (International Journal of Molecular Sciences, 2023).

Assays:
IL-6 = experiment: ELISA, carvacrol-induced IL-6 release in NHEK; assay type: cell-based, human; details: 1 µM with 300 µM carvacrol, 24 h
From the text: (§1) Constitutive activation of TRPV3 due to continuous stimulation or the presence of Olmsted mutations causes noticeable skin inflammation due to the increased secretion of pro-inflammatory cytokines from the keratinocytes. Besides, in atopic dermatitis (AD), cytokine release from keratinocytes contributes to the inflammatory environment, which drives many characteristic AD symptoms. Therefore, we determined the effect of TRPV3 activation on cytokine release instead of TRPV3 expression and evaluated whether alpha-mangostin suppressed TRPV3-mediated cytokine secretion in normal human keratinocytes. The levels of secreted cytokines (interleukin (IL)-6, IL-8, and tumor necrosis factor-alpha (TNF-α)) were measured using enzyme-linked Immunosorbent assay (ELISA) kits due to their high sensitivity and quantitation ability. The cells were induced with 300 µM carvacrol, with or without 1 µM alpha-mangostin, and 10 µM 74a.
(§2) Figure 5 Alpha-mangostin (α-MG) inhibited carvacrol-induced cytokine release in NHEK cells and rescued carvacrol-induced cell death. (A) Alpha-mangostin inhibited the carvacrol-induced release of IL-8 and IL-6 in NHEK. Cells were induced by 300 µM carvacrol with or without either 1 µM alpha-mangostin or 10 µM 74a for 24 h before the ELISA assay. (B) Alpha-mangostin reduced cell death caused by carvacrol in human keratinocytes. […]

TRPA1 = molecular target: T1, TRPA1 (Homo sapiens, UniProt O75762); experiment: Whole-cell patch-clamp, AITC-activated TRPA1 current in transfected HEK 293T cells; assay type: cell-based; details: 100 µM AITC
T1 construct: host or cells: HEK 293T (transient transfection)
T1 sequence (O75762 whole entry, species assumed): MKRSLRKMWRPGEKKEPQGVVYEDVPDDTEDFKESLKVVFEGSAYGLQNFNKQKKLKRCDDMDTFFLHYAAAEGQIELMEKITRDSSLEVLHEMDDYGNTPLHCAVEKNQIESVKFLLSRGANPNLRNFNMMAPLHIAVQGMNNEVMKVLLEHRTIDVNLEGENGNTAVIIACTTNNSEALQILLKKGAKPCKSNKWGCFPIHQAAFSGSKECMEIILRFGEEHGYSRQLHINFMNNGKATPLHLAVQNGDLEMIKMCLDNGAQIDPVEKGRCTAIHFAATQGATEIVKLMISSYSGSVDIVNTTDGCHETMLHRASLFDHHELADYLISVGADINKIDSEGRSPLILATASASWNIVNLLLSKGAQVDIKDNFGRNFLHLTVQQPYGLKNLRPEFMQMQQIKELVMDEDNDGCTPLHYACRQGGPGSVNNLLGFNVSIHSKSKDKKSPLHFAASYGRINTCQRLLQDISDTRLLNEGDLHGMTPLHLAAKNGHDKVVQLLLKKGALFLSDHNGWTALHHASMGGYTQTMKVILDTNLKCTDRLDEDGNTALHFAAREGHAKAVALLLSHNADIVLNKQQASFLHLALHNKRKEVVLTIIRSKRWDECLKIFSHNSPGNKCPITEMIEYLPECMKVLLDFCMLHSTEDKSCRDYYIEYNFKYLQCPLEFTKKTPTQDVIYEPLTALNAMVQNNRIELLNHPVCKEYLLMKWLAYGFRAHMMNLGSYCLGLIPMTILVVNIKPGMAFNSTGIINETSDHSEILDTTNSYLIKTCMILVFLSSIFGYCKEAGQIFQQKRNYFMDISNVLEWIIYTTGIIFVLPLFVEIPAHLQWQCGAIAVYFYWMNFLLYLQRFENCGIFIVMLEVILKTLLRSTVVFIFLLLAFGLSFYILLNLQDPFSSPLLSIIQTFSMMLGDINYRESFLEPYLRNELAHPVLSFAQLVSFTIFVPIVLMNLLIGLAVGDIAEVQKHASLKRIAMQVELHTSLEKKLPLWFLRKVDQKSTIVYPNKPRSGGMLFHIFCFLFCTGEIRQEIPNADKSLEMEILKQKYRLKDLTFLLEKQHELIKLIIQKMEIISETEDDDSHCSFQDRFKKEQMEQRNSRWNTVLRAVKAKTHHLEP
Experimental: Next, we examined the impact of alpha-mangostin on other TRP channels. TRPV4- and TRPA1 trasfected HEK 293T were activated using 300 nM GSK-1016790A (GSK101) and 100 µM allyl isothiocyanate (AITC), respectively. […] The dose–response curves were obtained by applying various concentrations of alpha-mangostin (Figure 2C).
Figure 2 Alpha-mangostin (α-MG) inhibited the TRPV3 current more effectively than other TRP channels. (A) Representative I–V curves from whole-cell recordings illustrate the inhibitory effect of 0.3 µM alpha-mangostin on TRPV4 and TRPA1 channels (GSK101: GSK-1016790A, a TRPV4 agonist; RR: ruthenium red, a TRP inhibitor; AITC: allyl isothiocyanate, a TRPA1 agonist; A967: A-967079, a TRPA1 inhibitor). Currents were elicited with ramp pulses from −100 to +100 mV over 1 s, which were repetitively applied every 20 s; the holding potential was set at 0 mV. (B) Summary of the inhibition percentage after 0.3 µM alpha-mangostin treatment at −100 mV. […]
In the whole-cell configuration, voltage ramps from −100 to +100 mV over 1 s were applied every 20 s and the holding potential was set at 0 mV. Sampling at 10 kHz and low-pass filtering at 5 kHz (w-c) were applied for all recorded currents. Recorded data were analyzed using Clampfit ver. […]

TNF-α = experiment: ELISA, TNF-α release in NHEK; assay type: cell-based, human; details: 1 µM with 300 µM carvacrol, 24 h
From the text: as §1, §2

TRPV3 = molecular target: T2, TRPV3 (Homo sapiens, UniProt Q8NET8); experiment: Whole-cell patch-clamp, 2-APB-evoked TRPV3 current in normal human epidermal keratinocytes (NHEK); assay type: cell-based; parameters: host or cells: NHEK; details: 100 µM 2-APB, −100 mV, read-out: TRPV3 current inhibited to (normalized to maximum 2-APB response)
T2 sequence (Q8NET8 1-790): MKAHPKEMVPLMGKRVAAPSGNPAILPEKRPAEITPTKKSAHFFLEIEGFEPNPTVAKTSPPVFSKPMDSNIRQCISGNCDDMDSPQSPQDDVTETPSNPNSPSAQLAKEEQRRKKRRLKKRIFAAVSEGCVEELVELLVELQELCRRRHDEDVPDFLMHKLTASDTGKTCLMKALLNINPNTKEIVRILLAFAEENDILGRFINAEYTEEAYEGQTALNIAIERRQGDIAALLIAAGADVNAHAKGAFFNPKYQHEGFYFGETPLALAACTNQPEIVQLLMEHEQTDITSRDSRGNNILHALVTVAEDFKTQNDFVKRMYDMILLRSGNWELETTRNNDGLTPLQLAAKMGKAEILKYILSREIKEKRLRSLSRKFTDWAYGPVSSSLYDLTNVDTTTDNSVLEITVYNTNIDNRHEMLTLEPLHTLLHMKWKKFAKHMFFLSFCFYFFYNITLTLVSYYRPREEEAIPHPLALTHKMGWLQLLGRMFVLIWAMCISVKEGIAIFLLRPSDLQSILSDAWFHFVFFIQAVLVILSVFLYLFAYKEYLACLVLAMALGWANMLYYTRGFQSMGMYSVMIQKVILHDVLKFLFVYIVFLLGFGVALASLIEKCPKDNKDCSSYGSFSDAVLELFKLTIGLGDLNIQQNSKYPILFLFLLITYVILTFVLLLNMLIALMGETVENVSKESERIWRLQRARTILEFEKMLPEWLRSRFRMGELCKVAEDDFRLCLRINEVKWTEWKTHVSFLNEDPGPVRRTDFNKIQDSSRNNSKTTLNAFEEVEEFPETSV

**Q.** Which “Effect on IL-6 levels” value (IL-6) does the source give for `COc1c(O)cc2oc3cc(O)c(CC=C(C)C)c(O)c3c(=O)c2c1CC=C(C)C` [Alpha-mangostin] here?
**A.** slightly decreased

**Q.** What about the inhibition at 0.3 µM (TRPA1; HEK-293T, 0.3 µM, −100 mV, read-out: Inhibition percentage of TRPA1 current) of the same compound?
**A.** 24.8%

**Q.** And the IC50 (TRPA1; transfected HEK 293T, read-out: IC50, inhibition of TRPA1 current)?
**A.** 5.09 ± 2.21 µM

**Q.** And the “Effect on TNF-α levels” value (TNF-α)?
**A.** no changes

**Q.** What about the activity at 0.3 µM (TRPV3; 0.3 µM) of the same compound?
**A.** 75.1%

**Q.** And the activity at 3 µM (TRPV3; 3 µM)?
**A.** 27%
